Assay results from patent publication EP0958287B1, “SULFAMIDE-METALLOPROTEASE INHIBITORS” (F. HOFFMANN-LA ROCHE AG, priority 1997, dated 1998).

Assays:
[1] = tested on: TNF-α; experiment: Inhibition of LPS induced TNF-α production in mice in vivo; conditions: Female Balb/c mice, subcutaneous, LPS 50 µg/mouse i.p. after 1 h, serum TNF-α 1.5 h later
Method: The activity of compounds of this invention in inhibiting the TNF-α release was determined, using a minor modification of the methods described in Zanetti, G.; Heumann, D., et. al., "Cytokine production after intravenous or peritoneal Gram-negative bacterial challenge in mice" J. Immunol., 148, 1890, (1992) and Sekut, L., Menius, J.A., et. al., "Evaluation if the significance of elevated levels of systemic and localized tumor necrosis factor in different animal models of inflammation" J. Lab. Clin. Med., 124, 813, (1994).
Female Balb/c mice were anesthetized and injected subcutaneously with the test compounds dissolved in CMC vehicle or hydroxypropylmethyl cellulose based vehicle. Control animals received only the vehicle. After 1 h, LPS (50 µg/ mouse, Sigma #13129, Sigma Chemical Co., St. Louis, MO) was injected intraperitoneally. After 1.5 h, blood was collected from the retro-orbital plexus region of the animals in a microtainer serum separator tube (Becton Dickinson, Cat. No. #5960, Becton Dickinson & Co., Franklin Lakes, NJ). The sera was separated and the amount of TNF-α was determined using the EM-TNFA® kit (Endogen, Woburn, MA) by following the manufacturer's protocol.

[2] = tested on: TNF; experiment: Inhibition of TNF release in vitro (LPS/PMA stimulated Monomac 6 cells); assay type: cell-based; conditions: Homo sapiens, MONO-MAC-6, Conc. 10 µM, 2 h
Method: The activity of compounds of this invention in inhibiting the TNF release was determined, using the a minor modification of the method described in Pradines-Figueres, A. and Raetz, C.R.H., J. Biol. Chem., 267 (32), 23261, (1992).
Human Monomac 6 cells (Ziegler-Heitbrock, H.W.L., et al., Int. J. Cancer, 41, 456, (1988)) were cultured at 37 °C in RPMI 1640 medium containing 10% fetal calf serum to a density of 1 x 10^5 cells/ml. 0.23 ml of these cells were placed in each well of a tissue culture plate and the cells were incubated for 15 min. The test compounds were dissolved in above mentioned medium and added and the incubation was continued for an additional 15 min. 10 µl of an lipopolysaccharide/phorbol-12-myristate -13-acetate (LPS/PMA) mixture was added such that the final concentration of lipopolysaccharide was 10 ng/ml and the final concentration of phorbol-12-myristate -13-acetate was 30 ng/ml. The cells were incubated for 2 h after which the plate was centrifuged and the medium was removed and analyzed for TNF content. The analysis was performed using a TNF Quantikine® Immunoassay (R & D Systems, Minneapolis, MN 55413) by following the manufacturer's protocol.

[3] = tested on: collagen matrix; experiment: Degradation of cartilage plug in vitro (IL-1-α stimulated cartilage explants, hydroxyproline content); assay type: cell-based; conditions: bovine cartilage explants stimulated with IL-1-α 20 ng/ml, 21 days; compounds at concentrations between 10 and 300 nm; hydroxyproline content relative to control
Method: The ability of the compounds of this invention to inhibit the degradation of the collagen matrix (as judged by release of hydroxyproline) was determined by the cartilage plug degradation assay in vitro by following a slight modification of the method described in Spirito, S., Doughty, E., et al., "Metalloproteinase inhibitors halt collagen breakdown in IL-1 induced bovine nasal cartilage cultures" Inflamm.
The cultures were stimulated with IL-1-α at a final concentration of 20 ng/ml. Compounds of Formula (I), were added at concentrations between 10 and 300 nm in DMSO. The control samples contained only IL-1-α. […] The cartilage plugs were removed, hydrolyzed and the hydroxyproline content was determined. The MMP inhibitory activity of test materials is the measure of the hydroxyproline content in the test group relative to the vehicle treated group (control group).

[4] = tested on: collagen matrix; experiment: Cartilage plug degradation in vivo (cartilage plug implant assay, hydroxyproline content); conditions: cartilage plug implant in female Lewis rats, terminated after 8 or 9 days; hydroxyproline content relative to vehicle group
[5] = target: human collagenase-1; experiment: Inhibition of matrix metalloproteases in vitro: collagenase-1; assay type: biochemical; conditions: hydrolysis of MCA-Pro-Leu-Gly-Leu-DPA-Ala-Arg-NH2 at 37 °C; read-out: Collagenase-I IC50
Method: The matrix metalloprotease enzyme was diluted with assay buffer (50 mM Tricine pH 7.5, 200 mM NaCl, 10 mM CaCl2, and 0.005% Brij-35) containing 10 µmole of above substrate dissolved in DMSO.

[6] = target: human collagenase-3; experiment: Inhibition of matrix metalloproteases in vitro: human collagenase-3; assay type: biochemical; conditions: hydrolysis of MCA-Pro-Leu-Gly-Leu-DPA-Ala-Arg-NH2 at 37 °C; species of collagenase-III not given

SMILES | % inhibition [1] [%] | % protection [4] [%] | also measured
O=C(NO)C1CCCCN1S(=O)(=O)N1CCN(c2ccc(Cl)cc2)CC1 (racemic) [compound 234] | 46 | – | –
CC(C)[C@H](C(=O)NO)N(Cc1ccccc1)S(=O)(=O)N1CCCCC1 [compound 1, N-hydroxy-2-(R)-[benzyl-(piperidine-1-sulfonyl)amino]-3-methylbutyramide] | – | – | inhibition at 10 µM [2]: < 15%
CC(C)[C@@H](NS(=O)(=O)N1CCN(c2ccc(Cl)cn2)CC1)C(=O)NO [compound 50] | – | 70 | % protection [3]: 71%
CC(C)[C@@H](NS(=O)(=O)N1CCN(c2ccc(Cl)cc2)CC1)C(=O)NO [compound 51] | – | 45 | % protection [3]: 35%
CC(C)[C@@H](NS(=O)(=O)N1CCN(c2ccc(OCc3ccccc3)cc2)CC1)C(=O)NO [compound 74, N-hydroxy-2-(R)-{[4-(4-benzyloxyphenyl)piperazine-1-sulfonyl]amino}-3-methylbutyramide] | – | 46 | inhibition at 10 µM [2]: 17%
CC(C)[C@@H](NS(=O)(=O)N1CCC(Oc2ccc(F)cc2)CC1)C(=O)NO [compound 179] | – | 63 | –
O=C(NO)[C@H]1CCCCN1S(=O)(=O)N1CCCC1 [compound 232] | 73 | – | –
O=C(c1ccc(Cl)cc1)C1CCN(S(=O)(=O)N2CCCC[C@@H]2C(=O)NO)CC1 [compound 242] | – | – | % protection [3]: 27%
O=CN1CCN(S(=O)(=O)N2CCC(C(=O)c3ccc(Cl)cc3)CC2)C(C(=O)NO)C1 (stereo not shown) [compound 262] | 50 | – | –
N#Cc1ccc2[nH]cc(C3CCN(S(=O)(=O)N4CCCC[C@@H]4C(=O)NO)CC3)c2c1 [compound 294] | 90 | – | –
CN(C)C(=O)N1CCN(S(=O)(=O)N2CCC(c3c[nH]c4c(F)c(F)c(F)c(F)c34)CC2)[C@@H](C(=O)NO)C1 [compound 309] | 46 | – | –
CC(C)[C@@H](NS(=O)(=O)N1CCN(c2ccc(OCc3ccncc3)cc2)CC1)C(=O)O [compound 413] | – | – | IC50 [5]: 9.3 µM; IC50 [6]: 0.26 µM
